Measured values taken from US20260070886A1, “QUINOLINE PIPERAZINE DERIVATIVES, PHARMACEUTICAL COMPOSITION AND USES THEREOF” (priority 2022, published 2026).

Experiments:
Assay type in all cases: cell-based
NCI-H-460 cells = experiment: Cell cytotoxicity assay, NCI-H-460 cells; details: Homo sapiens, NCI-H460, 72 hours, percent cytotoxicity against DMSO control; for cytotoxicity at 1 µM: 1 μM compound, read-out: Cell toxicity NCI-H-460 cells 1 μM; for cytotoxicity at 10 µM: 10 μM compound, read-out: Cell toxicity NCI-H-460 cells 10 μM
Excerpt: (§1) The following human derived non-small cell lung cancer cell lines were used to test the efficiency of the compounds to cause cell death and assess the anti-cancer properties of said compounds: 1. A549 cells: adenocarcinomic human alveolar basal epithelial cells; these cells are used as models for the study of lung cancer and the development of drug therapies against it • 2. NCI-H-460 cells are also human lung cancer cells, and • 3. NCI-H-522 cells are also human lung cancer cells.
(§2) 500 cells/well/30 μL were seeded in a 384 well cell culture plate. Incubated over night at 37° C., 5% CO2 in cell culture incubator. 10 μL of 4× compound was added to the plates, and incubated for 72 hours at 37° C., 5% CO2 in cell culture incubator. Assay DMSO control were included for 0% cytotoxicity control. Assay was terminated by addition of 10 μL of the reagent CTG 2.0 detection reagent #G9242. Plates were incubated for 20 minute incubation at room temperature with shaking Plate were read in Envision. Ultrasensitive luminescence and data was analyzed and percent cytotoxicity of compounds was determined against DMSO control.
(§3) All the compounds, A1-A116, were tested for cell toxicity using said non-small cell lung cancer cell lines using the above described method.

[1] = test system: Non-small cell lung cancer cell lines; experiment: Cell toxicity assay, overall statement; details: summary in words of Table 6
Excerpt: as §1, §2, §3
These selected derivatives of Formula A were further tested to confirm their efficiency as anti-cancer compounds.

A549 cells = experiment: Cell cytotoxicity assay, A549 cells; details: Homo sapiens, 72 hours, percent cytotoxicity against DMSO control; for cytotoxicity at 1 µM: 1 μM compound, read-out: Cell toxicity A549 cells 1 μM; for cytotoxicity at 10 µM: 10 μM compound, read-out: Cell toxicity A549 cells 10 μM
Excerpt: as §1, §2, §3

NCI-H-522 cells = experiment: Cell cytotoxicity assay, NCI-H-522 cells; details: Homo sapiens, NCI-H522, 72 hours, percent cytotoxicity against DMSO control; for cytotoxicity at 1 µM: 1 μM compound, read-out: Cell toxicity NCI-H-522 cells 1 μM; for cytotoxicity at 10 µM: 10 μM compound, read-out: Cell toxicity NCI-H-522 cells 10 μM
Excerpt: as §1, §2, §3

Structure (SMILES) | cytotoxicity at 1 µM (NCI-H-460 cells) [%] | cytotoxicity at 10 µM (NCI-H-460 cells) [%] | activity against Non-small cell lung cancer (cell toxicity) [1] | cytotoxicity at 1 µM (A549 cells) [%] | cytotoxicity at 10 µM (A549 cells) [%] | cytotoxicity at 1 µM (NCI-H-522 cells) [%] | cytotoxicity at 10 µM (NCI-H-522 cells) [%]
COc1cc(Nc2nc(C)cc(N3CCN(c4ccnc5cc(Cl)ccc45)CC3)n2)cc(C(F)(F)F)c1 [Compound A2, 4-(4-(7-chloroquinolin-4-yl)piperazin-1-yl)-N-(3-methoxy-5-(trifluoromethyl)phenyl)-6-methylpyrimidin-2-amine] | -8 | -3 | active | 9 | 1 | 4 | 14
COc1cccc(Nc2nc(C)cc(N3CCN(c4ccnc5cc(Cl)ccc45)CC3)n2)c1 [Compound A4, 4-(4-(7-chloroquinolin-4-yl)piperazin-1-yl)-N-(3-methoxyphenyl)-6-methylpyrimidin-2-amine] | -4 | 71 | active | 47 | 95 | 14 | 57
COc1cc(F)cc(Nc2nc(C)cc(N3CCN(c4ccnc5cc(Cl)ccc45)CC3)n2)c1 [Compound A5, 4-(4-(7-chloroquinolin-4-yl)piperazin-1-yl)-N-(3-fluoro-5-methoxyphenyl)-6-methylpyrimidin-2-amine] | -8 | 7 | active | 24 | 5 | 6 | 22
COc1cc(Nc2nc(N3CCN(c4ccnc5cc(Cl)ccc45)CC3)cc(C(F)(F)F)n2)cc(C(F)(F)F)c1 [Compound A6, 4-(4-(7-chloroquinolin-4-yl)piperazin-1-yl)-N-(3-methoxy-5-(trifluoromethyl)phenyl)-6-(trifluoromethyl)pyrimidin-2-amine] | -7 | -1 | active | 15 | 4 | 7 | 21
COc1cccc(Nc2nc(N3CCN(c4ccnc5cc(Cl)ccc45)CC3)cc(C(F)(F)F)n2)c1 [Compound A8, 4-(4-(7-chloroquinolin-4-yl)piperazin-1-yl)-N-(3-methoxyphenyl)-6-(trifluoromethyl)pyrimidin-2-amine] | -9 | -3 | active | 14 | 5 | 1 | 7
Cc1cc(N2CCN(c3ccnc4cc(Cl)ccc34)CC2)nc(N2CCCC2)n1 [Compound A11, 7-chloro-4-(4-(6-methyl-2-(pyrrolidin-1-yl)pyrimidin-4-yl)piperazin-1-yl)quinoline] | -12 | -4 | active | 16 | 10 | 2 | 9
Cc1cc(N2CCN(c3ccnc4cc(Cl)ccc34)CC2)nc(N2CCCCC2)n1 [Compound A12, 7-chloro-4-(4-(6-methyl-2-(piperidin-1-yl)pyrimidin-4-yl)piperazin-1-yl)quinoline] | -9 | 99 | active | 10 | 99 | 5 | 99
Cc1cc(N2CCN(c3ccnc4cc(Cl)ccc34)CC2)nc(N2CCCCCC2)n1 [Compound A13, 4-(4-(2-(azepan-1-yl)-6-methylpyrimidin-4-yl)piperazin-1-yl)-7-chloroquinoline] | -11 | 47 | active | 14 | 88 | 3 | 48
Cc1cc(N2CCN(c3ccnc4cc(Cl)ccc34)CC2)nc(N2CCOCC2)n1 [Compound A16, 4-(4-(4-(7-chloroquinolin-4-yl)piperazin-1-yl)-6-methylpyrimidin-2-yl)morpholine] | -11 | -6 | active | 9 | -17 | 8 | 12
FC(F)(F)c1cc(N2CCN(c3ccnc4cc(Cl)ccc34)CC2)nc(N2CCCC2)n1 [Compound A19, 7-chloro-4-(4-(2-(pyrrolidin-1-yl)-6-(trifluoromethyl)pyrimidin-4-yl)piperazin-1-yl)quinoline] | -8 | 45 | active | 25 | 87 | 11 | 48
FC(F)(F)c1cc(N2CCN(c3ccnc4cc(Cl)ccc34)CC2)nc(N2CCCCC2)n1 [Compound A20, 7-chloro-4-(4-(2-(piperidin-1-yl)-6-(trifluoromethyl)pyrimidin-4-yl)piperazin-1-yl)quinoline] | -10 | 60 | active | 37 | 89 | 8 | 43
FC(F)(F)c1cc(N2CCN(c3ccnc4cc(Cl)ccc34)CC2)nc(N2CCCCCC2)n1 [Compound A21, 4-(4-(2-(azepan-1-yl)-6-(trifluoromethyl)pyrimidin-4-yl)piperazin-1-yl)-7-chloroquinoline] | -15 | -8 | active | 13 | 23 | 1 | 9
FC(F)(F)c1cc(N2CCN(c3ccnc4cc(Cl)ccc34)CC2)nc(N2CCNCC2)n1 [Compound A22, 7-chloro-4-(4-(2-(piperazin-1-yl)-6-(trifluoromethyl)pyrimidin-4-yl)piperazin-1-yl)quinoline] | -14 | -2 | active | 11 | 17 | 1 | 11
CN1CCN(c2nc(N3CCN(c4ccnc5cc(Cl)ccc45)CC3)cc(C(F)(F)F)n2)CC1 [Compound A23, 7-chloro-4-(4-(2-(4-methylpiperazin-1-yl)-6-(trifluoromethyl)pyrimidin-4-yl)piperazin-1-yl)quinoline] | -15 | -2 | active | 12 | 13 | 1 | 9
FC(F)(F)c1cc(N2CCN(c3ccnc4cc(Cl)ccc34)CC2)nc(N2CCOCC2)n1 [Compound A24, 4-(4-(4-(7-chloroquinolin-4-yl)piperazin-1-yl)-6-(trifluoromethyl)pyrimidin-2-yl)morpholine] | -9 | -6 | active | -1 | 22 | 0 | 8
Fc1cccc(F)c1Nc1nc(N2CCN(c3ccnc4cc(Cl)ccc34)CC2)cc(C(F)(F)F)n1 [Compound A33, 4-(4-(7-chloroquinolin-4-yl)piperazin-1-yl)-N-(2,6-difluorophenyl)-6-(trifluoromethyl)pyrimidin-2-amine] | -9 | 3 | active | 8 | -8 | 2 | 17
FC(F)(F)c1cc(N2CCN(c3ccnc4cc(Cl)ccc34)CC2)nc(Nc2ccncc2)n1 [Compound A36, 4-(4-(7-chloroquinolin-4-yl)piperazin-1-yl)-N-(pyridin-4-yl)-6-(trifluoromethyl)pyrimidin-2-amine] | -11 | 98 | active | 0 | 99 | 2 | 72
